“Also recorded” adds a separate entry of the source.

What all share (assay type): cell-based, rat
Experiment [1] has as its system TH positive cells in primary ventral mesencephalic cell cultures. Briefly: MPP+ dose response on TH positive cell number in primary ventral mesencephalic cell cultures. The following applies: 24 hrs exposure, 0.1-10 μM MPP+, n=3; read-out: EC50, TH positive (dopaminergic) cell death. Here is the method: (§1) Primary ventral mesencephalic cell cultures: Primary cell cultures were prepared by dissecting out the ventral mesencephalon from E14 rat foetuses. The dissected tissue was pooled and incubated with 0.1% Trypsin solution. This solution was then removed and replaced with Dulbecco's modified Eagles medium (DMEM) containing 10% foetal bovine serum (FBS) and 0.25% penicillin-streptomycin-neomycin (PSN), and the tissue centrifuged for 1 minute at 2000 rpm at room temperature. The supernatant was then removed, fresh medium was added and the tissue mechanically dissociated using increasing fine bore fire-polished Pasteur pipettes. Cell density was assessed using a haematocytometer and cells were plated in culture medium containing 10% FBS and 0.25% PSN at a density of 1-1.5×10^5 on sterile coverslips coated with 0.01% poly-D-lysine. After 4 days the culture medium was removed and replaced with fresh serum free DMEM prior to treatment with MPP+ or OPN. […]
MPP+ dose response: MPP+ was dissolved in sterile PBS and the primary cell cultures were incubated for 24 hrs with one of the following concentrations of MPP+ : 0.1, 0.5, 1, 2, 5, 10 μM MPP+ or vehicle (PBS). […] An EC50 was calculated (3.076±0.56) and a high (10 μM) or low (2 μM) MPP+ concentration was used to investigate the role of OPN in dopaminergic cell survival. […]

Experiment [2] concerns TH positive cells in primary ventral mesencephalic cultures. Kind of experiment: Survival of TH positive cells in primary ventral mesencephalic cultures with MPP+ treatment. The following applies: for concentration of maximal efficacy in increasing TH positive cell survival: lowest concentration used; for effect on survival/death of TH positive cells: 24 hrs pretreatment. Here is the method: Primary ventral mesencephalic cell cultures: Primary cell cultures were prepared by dissecting out the ventral mesencephalon from E14 rat foetuses. The dissected tissue was pooled and incubated with 0.1% Trypsin solution. This solution was then removed and replaced with Dulbecco's modified Eagles medium (DMEM) containing 10% foetal bovine serum (FBS) and 0.25% penicillin-streptomycin-neomycin (PSN), and the tissue centrifuged for 1 minute at 2000 rpm at room temperature. The supernatant was then removed, fresh medium was added and the tissue mechanically dissociated using increasing fine bore fire-polished Pasteur pipettes. Cell density was assessed using a haematocytometer and cells were plated in culture medium containing 10% FBS and 0.25% PSN at a density of 1-1.5×10^5 on sterile coverslips coated with 0.01% poly-D-lysine. After 4 days the culture medium was removed and replaced with fresh serum free DMEM prior to treatment with MPP+ or OPN. Each treatment was done in triplicate per experiment and each series of experiments was repeated a further 2 times to give a final n=3.
Manipulation of the OPN system: Cultures were incubated with one of the following treatments for 24 hrs prior to MPP+ administration (either 10 μM or 2 μM MPP+): OPN protein (1, 5, 10, 25, 50 & 100 ng/ml), anti-OPN antibody (26.5, 53, 265, 530 ng/ml and 1.325, 2.65 μg/ml), anti-αv or anti-β3 integrin receptor subunit antibody (0.02, 0.04, 0.2, 0.4, 1 & 2 μg/ml). Control groups received no MPP+ treatment.
(§2) Tyrosine hydroxylase (TH) immunohistochemistry: The culture medium was removed from the cells and the coverslips were fixed in 4% paraformaldehyde prior to peroxidase detection of TH using the ABC immunohistochemical method. Coverslips were mounted and examined using a Zeiss Axiophot microscope at a 50× magnification and the number of TH positive cells on each coverslip was manually counted in four fields chosen at random (total area: 8 mm^2).

Experiment [3] has the same test system. Kind of experiment: Survival of TH positive cells in primary ventral mesencephalic cultures without MPP+ treatment. The following applies: 24 hrs incubation, no toxin; listed as OPN. As for the experimental part: as §1, §2

For the compound `C[n+]1ccc(-c2ccccc2)cc1` [MPP+], in experiment [1], the EC50 (usually the concentration at which the effect is half-maximal) worked out at 3.08 ± 0.56 µM.

As for “OPN protein fragment: 15 amino acid fragment of rat osteopontin (SEQ ID NO: 8) containing the RGD αvβ3 integrin binding site (TVDVPDGRGDSLAYG; listed as Rattus norvegicus)”, the “concentration of maximal efficacy in increasing TH positive cell survival” value in experiment [2] (2 μM MPP+) and in experiment [2] (10 μM MPP+) was 1 ng/mL in each case. Also, the “effect on survival/death of TH positive cells” value is recorded as “almost completely protected dopaminergic cells” in experiment [2] (then 2 μM MPP+ for 24 hrs); “increased TH cell survival” in experiment [2] (then 2 μM MPP+ for 24 hrs, listed as OPN); “almost completely protected dopaminergic cells” in experiment [2] (then 10 μM MPP+ for 24 hrs); “increased survival of TH positive cells” in experiment [2] (then 10 μM MPP+ for 24 hrs, listed as OPN). Also, in experiment [3], the “effect on viability of TH positive cells” value was “not found to affect the viability; also recorded: no effect”.

Values taken from US20060264371A1, “Treatment” (Proximagen Ltd., priority 2005, published 2006).
